Laboratory results published in patent publication US20070027218A1, “Pharmaceutical compositions comprising higher primary alcohols and ezetimibe and process of preparation thereof” (PANACEA BIOTEC LTD., priority 2004, published 2007).

Test system: Casein-Starch-Induced Hypercholesterolemia in Rabbits
Assay: Casein-starch-induced hypercholesterolemia in rabbits (serum lipid profile)
Format: in vivo
Conditions: for LDL-C level / serum total cholesterol level: mean ± S.E.M., in mg/dL (unit assumed)
Experimental: The observed unexpected synergistic lipid lowering effect of combination of Extract-A as described herein and ezetimibe is evidenced by the test conducted in rabbits. Rabbits of either sex were procured from Central Animal House facility; Panacea Biotec Ltd., India. Animals weighing […] at the time of testing were used throughout. All animals were dosed sequentially by the oral route with Extract-A and/or ezetimibe suspended in 0.5% of carboxymethyl cellulose (CMC). A dosing volume of 2 ml/kg was used for each sequential suspension.
The fasting serum lipid profile (TC, TGs, LDL-C, HDL-C) was estimated before initiation of the experiment. […] Hypercholesterolemia was induced by feeding rabbits with wheat casein-starch diet (g/kg) containing wheat flour 333, cellulose 300, casein 270, water 20, maize oil 10, and mineral mixture (Kroon et al., 1982) for 8 weeks. Feed consumption was restricted to 100 g/day per animal. The cholesterol level was estimated every 15 days. After 60 days animals with total cholesterol level>150 mg/dl were randomized to treatment (n=6/group). Thereafter, various doses of Extract-A and/or ezetimibe were administered for another 60 days during which animals were fed with casein-starch diet. Blood samples were collected from fasted rabbits and analyzed for any alteration in serum lipid profile after 60 days of test compound(s) administration.
All the data are expressed as mean±S.E.M. (Standard Error of Mean). Student t-test was used to compare the lipid parameters between animals fed with standard and hypercholesterolemic diet. The difference between various drug treated groups was analyzed by ANOVA followed by Dunnett's test. A value of P<0.05 was considered as statistically significant.

[1] = Extract-A 100 and 200 mg/kg p.o., ezetimibe 5 and 10 mg/kg p.o., alone or in combination, vs hypercholesterolemic control rabbits
[2] = ezetimibe 5 mg/kg p.o., day 0 (before treatment)
[3] = ezetimibe 5 mg/kg p.o., day 15 (before treatment)
[4] = ezetimibe 5 mg/kg p.o., day 30 (before treatment)
[5] = ezetimibe 5 mg/kg p.o., day 60 (start of treatment)
[6] = ezetimibe 5 mg/kg p.o., day 75 (treatment from day 60)
[7] = ezetimibe 5 mg/kg p.o., day 90 (treatment from day 60)
[8] = ezetimibe 5 mg/kg p.o., day 105 (treatment from day 60)
[9] = ezetimibe 5 mg/kg p.o., day 120 (treatment from day 60)
[10] = ezetimibe 10 mg/kg p.o., day 0 (before treatment)
[11] = ezetimibe 10 mg/kg p.o., day 15 (before treatment)
[12] = ezetimibe 10 mg/kg p.o., day 30 (before treatment)
[13] = ezetimibe 10 mg/kg p.o., day 60 (start of treatment)
[14] = ezetimibe 10 mg/kg p.o., day 75 (treatment from day 60)
[15] = ezetimibe 10 mg/kg p.o., day 90 (treatment from day 60)
[16] = ezetimibe 10 mg/kg p.o., day 105 (treatment from day 60)
[17] = ezetimibe 10 mg/kg p.o., day 120 (treatment from day 60)

O=C1[C@H](CC[C@H](O)c2ccc(F)cc2)[C@@H](c2ccc(O)cc2)N1c1ccc(F)cc1 [Ez, ezetimibe]
LDL-C levels (result in words) [1]: reversed | TC levels (result in words) [1]: reversed | LDL-C level [2]: 22.40 ± 8.81 | serum total cholesterol level [2]: 52.50 ± 3.59 | LDL-C level [3]: 76.13 ± 3.11 | serum total cholesterol level [3]: 103.50 ± 2.23 | LDL-C level [4]: 131.53 ± 6.89 | serum total cholesterol level [4]: 169.83 ± 6.16 | LDL-C level [5]: 174.3 ± 8.02 | serum total cholesterol level [5]: 219.83 ± 7.5 | LDL-C level [6]: 194.07 ± 4.29 | serum total cholesterol level [6]: 236.50 ± 3.47 | LDL-C level [7]: 179.47 ± 3.74 | serum total cholesterol level [7]: 222.83 ± 2.77 | LDL-C level [8]: 156.47 ± 12.92 | serum total cholesterol level [8]: 201.00 ± 12.6 | LDL-C level [9]: 129.17 ± 9.02 | serum total cholesterol level [9]: 181.50 ± 8.55 | LDL-C level [10]: 23.70 ± 7.98 | serum total cholesterol level [10]: 46.50 ± 2.2 | LDL-C level [11]: 72.70 ± 3.92 | serum total cholesterol level [11]: 106.83 ± 3.38 | LDL-C level [12]: 125.07 ± 10.94 | serum total cholesterol level [12]: 162.50 ± 11.54 | LDL-C level [13]: 197.03 ± 13.55 | serum total cholesterol level [13]: 234.50 ± 14.24 | LDL-C level [14]: 179.83 ± 9.83 | serum total cholesterol level [14]: 220.33 ± 8.73 | LDL-C level [15]: 152.80 ± 6.17 | serum total cholesterol level [15]: 197.66 ± 5.42 | LDL-C level [16]: 126.60 ± 6.85 | serum total cholesterol level [16]: 172.16 ± 6.58 | LDL-C level [17]: 124.63 ± 6.55 | serum total cholesterol level [17]: 171.50 ± 4.7
